Source: patent US10041047B2, “Compositions and methods for epithelial stem cell expansion and culture” (The Brigham and Women's Hospital, Inc., priority 2013, dated 2018)

Experiments:
[1] = system: Lgr5+ stem cells in small intestinal crypts; test: Small intestinal crypt culture from Lgr5-GFP mice in Matrigel: cell proliferation and Lgr5-GFP expression; format: cell-based, mouse; settings: for effect to promote GFP expression: HDAC inhibitor added to ENR-C condition, 6 day crypt cultures, compared with VPA
Experimental: Crypts and single Lgr5-GFP cells were isolated as previously described (Sato et al., 2009). Briefly, the proximal half of the small intestine was harvested, opened longitudinally, and washed with cold PBS to remove luminal content. The tissue was then cut into 2-4 mm pieces with scissors and further washed 5-10 times with cold PBS by pipetting up and down using a 10-ml pipette. Tissue fragments were incubated with 2 mM EDTA in PBS for 30 min on ice. After removal of EDTA, tissue fragments were washed with PBS to release crypts. Supernatant fractions enriched in crypts were collected, passed through a 70 μm cell strainer and centrifuged at 300 g for 5 minutes. The cell pellet was re-suspended with cell culture media without growth factors and centrifuged at 150 g to remove single cells. Crypts were then cultured or used for single cell isolation. To obtain single cells, crypts were incubated in culture medium for 45 minutes at 37° C. and triturated with a glass pipette. Dissociated cells were passed through 20 μm cell strainer, negative stained with propidium iodide and single viable GFP-high cells were sorted by flow cytometry (FACS Aria, BD) as previously described (Sato et al., 2009). Small intestinal crypts isolated from Lgr5-EGFP-ires-CreERT2 mice were embedded in Matrigel and cultured under conventional culture conditions in the presence of EGF, Noggin and R-spondin 1 (collectively referred to as ENR) leading to organoids with crypts and villus-like domains and GFP^+ cells at the crypt tips, consistent with previous reports (Sato et al., 2009). Isolated crypts or single cells were cultured as previously described (Sato et al., 2009) with minimal modification. Briefly, crypts or single cells were entrapped in Matrigel and plated at the center of wells in a 24-well plate. After polymerization of Matrigel (growth factor reduced; BD Bioscience), 500 μl of culture medium (Advanced DMEM/F12 (Life Technologies)) was added containing growth factors including EGF (50 ng/ml, Life Technologies), Noggin (100 ng/ml, Peprotech) and R-spondin 1 (500 ng/ml, R&D) and small molecules including CHIR99021 (3 μM, Stemgent) and Valproic Acid (1 mM, Sigma-Aldrich). For comparison of different culture conditions, small molecules or growth factors were added to freshly isolated crypts immediately after plating in Matrigel to test the ability to minimize potential differentiation of the ISC within the crypts and thus sustain crypt cultures. Cell culture media was changed every other day. For single cell culture, cells were embedded in Matrigel containing Jagged-1 peptide (1 μM; AnaSpec) and Y-27632 (10 μM; Tocris) was added for the first 2 days. Cells were passaged either as cell colonies as previously described (Sato et al., 2009) or as single cells. For single cell passage, cell culture medium was removed and Accutase (Life Technologies) was added. After incubation at 37° C. for 10-20 minutes, cell colonies were dissociated into single cells by pipetting. Cells were then washed, embedded in fresh Matrigel and plated into 24-well plates. Cells cultured in the CV condition were passaged every 6 days at a 1:20 split ratio. Approximately half of the cultured crypts contained GFP+ cells, which is consistent with the in vivo GFP expression of Lgr5-GFP mice (FIG. 1).
The growth factors used in the ENR condition provide essential, but not adequate cues to sustain the self-renewal of Lgr5^+ stem cells. To identify factors essential to maintaining the self-renewal status of intestinal stem cells, selected small molecules that modulate signaling pathways of ISCs, such as Wnt, Notch, and BMP, were tested under the ENR condition, using the Lgr5-GFP reporter.
CHIR is a highly-specific GSK3 inhibitor that activates the Wnt/β-catenin signaling pathway (Bain et al., 2007), and has been used to maintain the self-renewal state of embryonic stem cells (Ying et al., 2008). […]

[2] = system: Lgr5+ stem cells; test: Controlled differentiation of Lgr5+ stem cells after CV culture (RT-PCR and staining of differentiation markers); format: cell-based, mouse; settings: colonies from 6 days CV, then 4 days with ENR plus agents (FIG. 7B)
[3] = system: human small intestinal crypts; test: Culture of human small intestinal crypts: LGR5 expression (RT-PCR) and cell number; format: cell-based
Description: Human small intestinal crypts were isolated from a resected normal small intestinal specimen and cultured as described in Example 1. The same cell culture solutions used in the culture of mouse small intestinal stem cells/crypts, which comprise a combination of CHIR99021 and VPA or Tubastatin A added to the ENR (EGF, Noggin, R-Spondin 1) condition, were compared to published cell culture solutions for human intestinal stem cells/crypts (Jung et al., 2011; Sato et al., 2011). RT-PCR was used to assess the maintenance of epithelial stem cells in the culture, specifically by determining the self-renewal or differentiation status. LGR5 was used as a stem cell marker and ALPI, MUC2, CHGA and LYZ were used as differentiation markers. Cell growth was assessed by counting the cell number in the cultures and by observing the morphology and size of colonies.

[4] = system: Lgr5+ stem/progenitor cells derived from the mouse inner ear; test: Culture of inner ear (cochlear) Lgr5-GFP epithelial cells in Matrigel; format: cell-based; settings: 8 day cultures; for cell proliferation on addition of a growth factor: EGF added to CV, others added to EGF+CV (FIG. 14D); for GFP expression on addition of a growth factor: added to EGF+CV or to the EGF+bFGF combination (FIG. 14D, 14E)
Description: The same culture condition (EGF, Noggin, R-spondin1, or “ENR”) as used in Lgr5+ small intestinal stem cell cultures was first established.
Isolated organ of Corti from Lgr5-GFP mice were dissociated into single cells using accutase and cultured in multiple combinations of soluble factors and small molecules in Matrigel for 8 days. The resulting cultures were further dissociated into single cells and analyzed using FACS. […] In addition, the combination of EGF, bFGF and IGF-1 (designated as EFI) improved cell proliferation and GFP expression compared with the ENR condition (FIG. 14A-14C).
To further investigate the effects of individual growth factors when combined with CHIR and VPA, growth factors including Mitogenic growth factors (EGF, bFGF and IGF-1) as well as the Wnt agonist R-spondin 1 in combination with CHIR and VPA were tested.

[5] = ENR-C condition with DAPT 5 μM, 3 days
[6] = combined with CHIR or Wnt3a, crypts 6 days (FIG. 9F)
[7] = multiple concentrations (FIG. 9E)

## CCCC(=O)[O-].[Na+] [Butyrate, Sodium butyrate]
[1]
  effect to promote GFP expression: no or only moderate effects

## CC(=O)Nc1ccc(C(=O)Nc2ccccc2N)cc1 [CI-994]
[1]
  effect to promote GFP expression: no or only moderate effects

## C[C@H](NC(=O)Cc1cc(F)cc(F)c1)C(=O)N[C@H](C(=O)OC(C)(C)C)c1ccccc1 [DAPT, N-[N-(3,5-Difluorophenacetyl)-L-alanyl]-S-phenylglycine t-butyl ester]
[2]
  Alpi expression: induced expression
  ChgA expression: greatly elevated
  Lgr5 expression: decreased
  Lysozyme expression: greatly elevated
  Muc2 expression: greatly elevated
[1]; [5]
  GFP expression: impaired
  cell proliferation: impaired

## Cc1ccc2nc(NC(=O)CSc3nc4c(c(=O)n3-c3ccccc3)SCC4)sc2c1 [IWP-2, N-(6-Methyl-2-benzothiazolyl)-2-[(3,4,6,7-tetrahydro-4-oxo-3-phenylthieno[3,2-d]pyrimidin-2-yl)thio]-acetamide]
[2]
  Alpi expression: preferentially induced
  ChgA expression: modestly elevated
  Lgr5 expression: completely abolished
  Lysozyme expression: completely abolished
  Muc2 expression: modestly elevated

## Cn1c(/C=C/C(=O)NO)ccc1/C=C/C(=O)c1cccc(F)c1 [MC1568]
[1]
  effect to promote GFP expression: no or only moderate effects

## Nc1ccccc1NC(=O)c1ccc(CNC(=O)OCc2cccnc2)cc1 [MS275]
[1]
  effect to promote GFP expression: no or only moderate effects

## NC(=O)c1cccnc1 [Nicotinamide]
[1]
  effect to promote GFP expression: no or only moderate effects
[1]; [6]
  GFP expression: did not promote
  cell proliferation: did not promote
[3]; added to ENR (or to the CHIR+VPA condition), RT-PCR
  expression of stem cell marker LGR5: without great impact
[3]; cell numbers at day 9 after seeding (FIG. 25A)
  proliferation of human small intestinal crypts (cell number): increased the proliferation

## O=C(CCCCCCC(=O)NO)NO [SBHA, Suberohydroxamic acid]
[1]
  effect to promote GFP expression: no or only moderate effects

## CC(/C=C/C(=O)NO)=C\[C@@H](C)C(=O)c1ccc(N(C)C)cc1 [TSA, Trichostatin A]
[1]; [7]
  GFP expression at multiple concentrations: maintained GFP expression
  cell proliferation at higher concentration: marked proliferation inhibition effect

## EGF: Epidermal Growth Factor
[1]; crypts 6 days in the CV condition (CHIR 3 μM, VPA 1 mM)
  requirement of growth factor to maintain self-renewal of Lgr5+ stem cells: could be removed from the culture without impacting maintenance
[1]; growth factor in the CV condition, 6 days
  proliferation of crypts: promoted the proliferation
[4]
  cell proliferation on addition of a growth factor: greatly increased

## IGF-1: mitogenic growth factor
[4]
  GFP expression on addition of a growth factor: slightly increased

## bFGF: mitogenic growth factor
[4]
  cell proliferation on addition of a growth factor: further increased
  GFP expression on addition of a growth factor: further increased
